This is an account of results in patent publication US20090275648A1, “MACROCYCLIC GHRELIN RECEPTOR ANTAGONISTS AND INVERSE AGONISTS AND METHODS OF USING THE SAME” (priority 2005, published 2009).

One assay addresses ghrelin receptor (Homo sapiens, UniProt Q92847). As to the kind of experiment: Aequorin functional assay (ghrelin receptor), Example 3. Type of assay: cell-based. Conditions: antagonist testing vs ghrelin at EC80 (3.7 nM). Set-up: host or cells: CHO-K1 cells co-expressing Gα16 and mitochondrially targeted Aequorin. The source says:
The functional activity of compounds of the invention found to bind to the GHS-R1a receptor can be determined using the method described below. (LePoul, E.; et al. Adaptation of aequorin functional assay to high throughput screening. J. Biomol. Screen. 2002, 7, 57-65; Bednarek, M. A.; et al. Structure-function studies on the new growth hormone-releasing peptide ghrelin: minimal sequence of ghrelin necessary for activation of growth hormone secretagogue receptor 1a. J. Med. Chem. 2000, 43, 4370-4376; Palucki, B. L.; et al. Spiro(indoline-3,4′-piperidine) growth hormone secretagogues as ghrelin mimetics. Bioorg. Med. Chem. Lett. 2001, 11, 1955-1957).
Membranes were prepared using AequoScreen™ (EUROSCREEN, Belgium) cell lines expressing the human ghrelin receptor (cell line ES-410-A; receptor accession #60179). This cell line is constructed by transfection of the human ghrelin receptor into CHO-K1 cells co-expressing Gα16 and the mitochondrially targeted Aequorin (Ref #ES-WT-A5). • 1. Ghrelin (reference agonist; Bachem, #H-4864) • 2. Assay buffer: DMEM (Dulbecco's Modified Eagles Medium) containing 0.1% BSA (bovine serum albumin; pH 7.0. • 3. Coelenterazine (Molecular Probes, Leiden, The Netherlands)
Stock solutions of compounds (10 mM in 100% DMSO) were provided frozen on dry ice and stored at −20° C. prior to use. From the stock solution, mother solutions were made at a concentration of 500 μM 20-fold dilution in 26% DMSO. Assay plates were then prepared by appropriate dilution in DMEM medium containing 0.1% BSA. Under these conditions, the maximal final DMSO concentration in the assay was <0.6%.
AequoScreen™ cells were collected from culture plates with Ca^2+ and Mg^2+-free phosphate buffered saline (PBS) supplemented with 5 mM EDTA, pelleted for 2 minutes at 1000×g, re-suspended in DMEM-Ham's F12 containing 0.1% BSA at a density of 5×10^6 cells/ml and incubated overnight at room temperature in the presence of 5 μM coelenterazine. After loading, cells were diluted with assay buffer to a concentration of 5×10^5 cells/ml.
For agonist testing, 50 μl of the cell suspension was mixed with 50 μl of the appropriate concentration of test compound or ghrelin (reference agonist) in 96-well plates (duplicate samples). Ghrelin (reference agonist) is tested at several concentrations concurrently with the test compounds in order to validate the experiment. The emission of light resulting from receptor activation in response to ghrelin or test compounds was recorded using the Hamamatsu FDSS 6000 reader (Hamamatsu Photonics K.K., Japan).
For antagonist testing, an approximate EC80 concentration of ghrelin (i.e. 3.7 nM; 100 μL) was injected onto the cell suspension containing the test compounds (duplicate samples) 15-30 minutes after the end of agonist testing and the consequent emission of light resulting from receptor activation was measured as described in the paragraph above.
Results are expressed as Relative Light Units (RLU). […] For agonist testing, results for each concentration of test compound were expressed as percent activation relative to the signal induced by ghrelin at a concentration equal to the EC80 (i.e. 3.7 nM). EC50, Hill slope and % Emax values are reported.
For antagonist testing, results for each concentration of test compound were expressed as percent inhibition relative to the signal induced by ghrelin at a concentration equal to the EC80.

In assay [1] the target is T1, human ghrelin receptor (hGHS-R1a) (Homo sapiens, UniProt Q92847).
T1 construct: purchased PerkinElmer BioSignal #RBHGHSM, lot#1887; host or cells: HEK-293 cells, stably transfected; membranes
T1 sequence (Q92847 whole entry): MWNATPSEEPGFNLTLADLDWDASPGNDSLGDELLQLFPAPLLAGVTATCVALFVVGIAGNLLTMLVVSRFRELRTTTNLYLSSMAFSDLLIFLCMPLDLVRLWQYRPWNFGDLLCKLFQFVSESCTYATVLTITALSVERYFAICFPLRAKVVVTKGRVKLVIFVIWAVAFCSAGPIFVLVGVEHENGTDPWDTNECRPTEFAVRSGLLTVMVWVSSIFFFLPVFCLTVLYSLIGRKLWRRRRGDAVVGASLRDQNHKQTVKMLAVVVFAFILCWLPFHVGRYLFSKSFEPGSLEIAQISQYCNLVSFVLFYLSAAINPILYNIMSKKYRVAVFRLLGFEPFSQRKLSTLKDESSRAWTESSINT
As to the kind of experiment: Competitive radioligand binding assay (ghrelin receptor), [125I]-ghrelin, GHS-R/HEK 293 membranes. Conditions: competition with [125I]-ghrelin. How it is done: The competitive binding assay at the human growth hormone secretagogue receptor (HGHS-R1a) was carried out analogously to assays described in the literature. (Bednarek M A et al. Structure-function studies on the new growth hormone-releasing peptide ghrelin: minimal sequence of ghrelin necessary for activation of growth hormone secretagogue receptor 1a; J. Med. Chem. 2000, 43, 4370-4376; Palucki, B. L. et al. Spiro(indoline-3,4′-piperidine) growth hormone secretagogues as ghrelin mimetics; Bioorg. Med. Chem. Lett. […], 11, 1955-1957).
Membranes (GHS-R/HEK 293) were prepared from HEK-293 cells stably transfected with the human ghrelin receptor (hGHS-R1a). These membranes were provided by PerkinElmer BioSignal (#RBHGHSM, lot#1887) and utilized at a quantity of 0.71 μg/assay point. • 1. [^125]-Ghrelin (PerkinElmer, #NEX-388); final concentration: 0.0070-0.0085 nM • 2. […] Multiscreen Harvest plates-GF/C (Millipore, #MAHFC1H60) • 4. Deep-well polypropylene titer plate (Beckman Coulter, #267006) • 5. TopSeal-A (PerkinElmer, #6005185) • 6. Bottom seal (Millipore, #MATAH0P00) • 7. MicroScint-0 (PerkinElmer, #6013611) • 8. Binding Buffer: 25 mM Hepes (pH 7.4), 1 mM CaCl2, 5 mM MgCl2, 2.5 mM EDTA, 0.4% BSA
Competition experiments were performed in a 300 μl filtration assay format. • 1. 220 μL of membranes diluted in binding buffer • 2. 40 μL of compound diluted in binding buffer • 3.
Compounds were provided frozen on dry ice at a stock concentration of 10 mM diluted in 100% DMSO and stored at −80° C. until the day of testing. On the test day, compounds were allowed to thaw at rt overnight and then diluted in assay buffer according to the desired test concentrations. Under these conditions, the maximal final DMSO concentration in the assay was 0.1%.
In deep-well plates, 220 μL of diluted cell membranes (final concentration: 0.71 μg/well) were combined with 40 μL of either binding buffer (total binding, N=5), 1 μM ghrelin (non-specific binding, N=3) or the appropriate concentration of test compound N=2 for each test concentration). […] Plates were sealed with TopSeal-A, vortexed gently and incubated at rt for 30 min. The reaction was arrested by filtering samples through Multiscreen Harvest plates (pre-soaked in 0.5% polyethyleneimine) using a Tomtec Harvester, washed 9 times with 500 μL of cold 50 mM Tris-HCl (pH 7.4, 4° C.), and then plates were air-dried in a fumehood for 30 min. A bottom seal was applied to the plates prior to the addition of 25 μL of MicroScint-0 to each well. Plates were than sealed with TopSeal-A and counted for 30 sec per well on a TopCount Microplate Scintillation and Luminescence Counter (PerkinElmer) using a count delay of 60 sec. Results were expressed as counts per minute (cpm).
Data were analyzed by GraphPad Prism (GraphPad Software, San Diego, Calif.) using a variable slope non-linear regression analysis.
Dmax values were calculated using the following formula: […]
where total and non-specific binding represent the cpm obtained in the absence or presence of 1 μM ghrelin, respectively.

Chain of ghrelin receptor (Q92847 whole entry): as above

In general, IC50 refers to the concentration that inhibits the measured activity by half. Read a high IC50 as lower potency. As a reminder, the Ki is the dissociation constant of the complex between target and ligand, obtained from inhibition or displacement. Read a low Ki as a stronger hold on the target. At ghrelin receptor, `CCC(C)[C@@H]1NCCOc2ccccc2/C=C/CNC(=O)[C@@H](Cc2ccccc2)NC(=O)[C@H](C(C)O)N(C)C1=O` (some centres unmarked) [Compound 502] showed a half-maximal inhibitory concentration (IC50) of 0.001 to 0.1 µM. In assay [1], this compound registered an inhibition constant (Ki) of 0.001 to 0.1 µM.
